From US9790211B2, “5-amino-quinoline-8-carboxamide derivatives as 5-HT4 receptor agonists” (SUVEN LIFE SCIENCES LIMITED, priority 2013, dated 2017)

Legend:
[1] = system: acetylcholine levels in ventral hippocampus; assay: Modulation of acetylcholine from the ventral hippocampus (microdialysis); assay type: in vivo, male Wistar rats; conditions: p.o.
Excerpt: (§1) Male Wistar rats (240-300 gram body weights) were stereotaxically implanted with a microdialysis guide cannula in the ventral hippocampus (AP: −5.2 mm, ML: +5.0 mm, DV: −3.8 mm). Co-ordinates were taken according to Paxinos and Watson (2007) with reference points taken from bregma and vertical from the skull. The rats were allowed to recover individually for five days in a round bottom Plexiglas bowl with free access to feed and water.
One day prior to the microdialysis experiment, rats were connected to a dual quartz lined two-channel liquid swivel (Instech, UK) on a counter balance lever arm, which allowed unrestricted movements of the animal. […]
On the day of study, probe was perfused at a constant flow rate of […] with artificial cerebrospinal fluid (aCSF; NaCl 147 mM, KCl 3.0 mM, MgCl2 1.0 mM, CaCl2. 2H2O 1.3 mM, NaH2PO4.2H2O 0.2 mM and Na2HPO4. 7H2O 1.0 mM, pH 7.2). […] Dialysates were stored below −70° C. until quantitation of acetylcholine.
Acetylcholine in dialysate was quantified in the calibration range of 0.103 nmol-103.497 nmol using LC-MS/MS method.
All microdialysis data were plotted as percent change from mean dialysate basal concentrations with 100% defined as the average of five predose values. The AUC was calculated by trapezoidal rule using WinNonlin (5.0.1 version. Pharsight Corp. CA). […]

[2] = system: acetylcholine levels in the frontal cortex; assay: Modulation of acetylcholine from the frontal cortex (microdialysis); assay type: in vivo, male Wistar rats; conditions: p.o.
Excerpt: as §1, with “frontal cortex” for “ventral hippocampus”, “+3.2” for “−5.2”, “−3.2” for “+5.0”, “−1.5” for “−3.8”
One day prior to the microdialysis experiment, rats were connected to a dual quartz lined two-channel liquid swivel (Instech. UK) on a counter balance lever arm, which allowed unrestricted movements of the animal. […]
On the day of study, probe was perfused at a constant flow rate of 1.5 (μL/min with artificial cerebrospinal fluid (aCSF; NaCl 147 mM. KCl 3.0 mM, MgCl2 1.0 mM, CaCl2. 2H2O 1.3 mM, NaH2PO4.2H2O 0.2 mM and Na2HPO4. 7H2O 1.0 mM, pH 7.2). A stabilization period of 2 h was maintained and five basal samples were collected at 20 minutes intervals. The compound of Example 18 or vehicle was administered and dialysate samples were collected at 20 minutes interval for an additional period of 4 hours. Dialysates were stored below −70° C. until quantitation of acetylcholine.
Acetylcholine in dialysate was quantified in the calibration range of 0.103 nmol-103.497 nmol using LC-MS/MS method. […]

[3] = system: Scopolamine Induced amnesia; assay: Radial arm maze; assay type: in vivo; conditions: p.o., rats
Excerpt: The cognition enhancing properties of compounds of formula (I) of this invention were estimated by using this model.
Radial arm maze consists of a central hub of 45 cm diameter. Each arm was of dimension 42.5×15×24 cm. The maze was elevated to a height of 1 m above the ground. The animals were placed on a restricted diet until they reached approximately 85% of their free feeding weight. During this diet restriction period animals were habituated to the novel feed (pellets). Once the rats reached approximately 85% of their free feeding weight rats were habituated to the maze on the 1st and 2nd day. […] Animals were randomized on day 2. On the subsequent days the treatment was given as per the allotment: Each animal was introduced into the maze individually for a period of 10 minutes. The arms were baited only once and the animal had to learn the rule that repeated arm entries would not be rewarded. The trial ended once the rat had visited 16 arms or 10 minutes were over or all the pellets were eaten. The arm entries were recorded using the software. Once the trial was over the rat was removed and the maze was cleaned using soap water.

[4] = 3.0 and 10.0 mg/kg, male Wistar rats

SMILES: Nc1c(Cl)cc(C(=O)NCC2CCN(CC3CCOCC3)CC2)c2ncccc12.O=C(O)C(O)C(O)C(=O)O [Example 13, 5-Amino-6-chloro-N-{[1-(tetrahydro-2H-pyran-4-ylmethyl)-4-piperidinyl]methyl} quinoline-8-carboxamide L(+)-tartarate]
- Area under the curve of acetylcholine change, ventral hippocampus (in words) ([1]; 10.0 mg/kg, vs vehicle, p<0.01): significant
- acetylcholine levels from the ventral hippocampus (in words) [1, 4]: dose dependent increase
- Area under the curve of acetylcholine change, frontal cortex (in words) ([2]; 10.0 mg/kg, vs vehicle, p<0.05): significant
- acetylcholine levels from the frontal cortex (in words) [2, 4]: dose dependent increase
- Reversal of Scopolamine Induced amnesia - Effective dose range [3]: 0.1-1 mg/kg, p.o.
